Measurements as given in US8481536B2, “Benzotriazine inhibitors of kinases” (TargeGen, Inc., priority 2004, dated 2013).

Assays:
Format in all cases: biochemical
Recombinant human c-Src = Recombinant human c-Src (Homo sapiens (Human), UniProt P12931); assay: Src kinase inhibition in vitro (luciferase-based residual ATP, KinaseGlo); details: ATP 3 μM, PTK2 substrate, 90 minutes at room temperature
Description: (§1) The ability of compounds of the present invention to inhibit the activity of three groups of kinases was tested. Kinases tested included the src family (primarily src and yes), some angiogenic growth factor receptors (Fgfr1, Vegfr, and Pdgfrβ) and the ephrin, EphB4. All kinase reactions were conducted in 96-well plates with a final reaction volume of 50 ul.
(§2) After reacting for about 90 minutes at room temperature, residual ATP was determined using a luciferase-based assay (KinaseGlo, Promega Corp.) as a measure of kinase activity. Data from four wells were then averaged and used to determine IC50 values for the test compounds (Prism software package, GraphPad Software, San Diego Calif.).
(§3) The test results for inhibition of Src kinase are presented in Table 1, and the test results for inhibition of some other kinases (i.e., Yes, EphB4, and Pdgfrβ) are presented in Table 2.

Pdgfrβ = Pdgfrβ (Homo sapiens (Human), UniProt P09619); assay: Pdgfrβ kinase inhibition in vitro (luciferase-based residual ATP); details: 500 nM ATP, PTK2 peptide, 60 minutes at 37 C; read-out: PDGFR IC50
Description: as §1
Pdgfrβ (0.16 ug/well, Panvera/Invitrogen) 500 nM ATP and the PTK2 peptide (700 uM) were combined with compound and reaction buffer as noted above for src. The reaction was incubated for 60 minutes at 37 C, and the residual ATP concentration was determined using the luciferase-based technique also noted above.
as §3

Recombinant human Yes = Recombinant human Yes (Homo sapiens (Human), UniProt P07947); assay: Yes kinase inhibition in vitro (luciferase-based residual ATP, KinaseGlo); details: ATP 3 μM, PTK2 substrate, 90 minutes at room temperature
Description: as §1, §2, §3

EphB4 = EphB4 (Homo sapiens (Human), UniProt P54760); assay: EphB4 kinase inhibition in vitro (luciferase-based residual ATP); details: 6 uM ATP, poly(glu4tyr), 60 minutes at 37 C
Description: as §1, §3

Sequence of Recombinant human c-Src (P12931 whole entry, looked up): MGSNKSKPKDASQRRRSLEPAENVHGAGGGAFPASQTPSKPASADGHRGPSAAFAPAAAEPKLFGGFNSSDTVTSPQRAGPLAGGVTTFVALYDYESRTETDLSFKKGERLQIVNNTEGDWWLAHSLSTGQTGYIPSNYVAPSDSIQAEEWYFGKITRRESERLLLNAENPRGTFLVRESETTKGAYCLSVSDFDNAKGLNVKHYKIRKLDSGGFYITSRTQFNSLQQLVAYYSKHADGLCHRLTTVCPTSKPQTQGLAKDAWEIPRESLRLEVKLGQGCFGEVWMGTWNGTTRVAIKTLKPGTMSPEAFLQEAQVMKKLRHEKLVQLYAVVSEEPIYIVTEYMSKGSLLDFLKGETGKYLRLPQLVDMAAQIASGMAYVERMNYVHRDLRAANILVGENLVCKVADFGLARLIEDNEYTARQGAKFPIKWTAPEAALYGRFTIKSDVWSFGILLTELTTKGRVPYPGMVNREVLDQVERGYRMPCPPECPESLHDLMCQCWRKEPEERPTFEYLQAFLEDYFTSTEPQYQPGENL
Sequence of Pdgfrβ (P09619 33-1106): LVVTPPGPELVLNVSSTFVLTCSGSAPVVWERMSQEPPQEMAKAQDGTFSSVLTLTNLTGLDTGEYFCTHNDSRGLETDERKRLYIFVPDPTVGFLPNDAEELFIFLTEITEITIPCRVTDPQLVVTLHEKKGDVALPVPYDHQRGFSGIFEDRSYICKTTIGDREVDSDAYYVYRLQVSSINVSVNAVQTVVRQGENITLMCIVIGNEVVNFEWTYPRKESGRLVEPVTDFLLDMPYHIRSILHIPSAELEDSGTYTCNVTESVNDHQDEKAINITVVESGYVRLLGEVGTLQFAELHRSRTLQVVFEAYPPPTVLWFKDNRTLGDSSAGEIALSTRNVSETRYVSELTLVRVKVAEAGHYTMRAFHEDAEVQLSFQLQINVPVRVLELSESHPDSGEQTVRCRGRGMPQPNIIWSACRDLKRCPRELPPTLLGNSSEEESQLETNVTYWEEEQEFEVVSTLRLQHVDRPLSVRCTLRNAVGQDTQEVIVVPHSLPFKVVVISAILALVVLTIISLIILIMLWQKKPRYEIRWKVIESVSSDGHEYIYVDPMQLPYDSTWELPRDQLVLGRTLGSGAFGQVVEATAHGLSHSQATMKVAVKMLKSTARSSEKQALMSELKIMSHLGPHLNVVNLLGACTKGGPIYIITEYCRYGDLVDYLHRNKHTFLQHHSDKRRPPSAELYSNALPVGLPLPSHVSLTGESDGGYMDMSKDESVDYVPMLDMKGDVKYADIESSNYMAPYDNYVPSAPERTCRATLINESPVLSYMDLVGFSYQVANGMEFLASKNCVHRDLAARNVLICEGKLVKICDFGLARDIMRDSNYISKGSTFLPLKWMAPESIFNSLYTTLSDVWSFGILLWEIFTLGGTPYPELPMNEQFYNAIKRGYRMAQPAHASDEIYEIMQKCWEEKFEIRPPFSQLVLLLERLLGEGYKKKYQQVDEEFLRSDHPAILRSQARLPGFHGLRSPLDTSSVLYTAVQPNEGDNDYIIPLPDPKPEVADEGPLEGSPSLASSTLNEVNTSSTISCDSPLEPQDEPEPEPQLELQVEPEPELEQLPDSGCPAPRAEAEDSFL
Sequence of EphB4 (P54760 16-987): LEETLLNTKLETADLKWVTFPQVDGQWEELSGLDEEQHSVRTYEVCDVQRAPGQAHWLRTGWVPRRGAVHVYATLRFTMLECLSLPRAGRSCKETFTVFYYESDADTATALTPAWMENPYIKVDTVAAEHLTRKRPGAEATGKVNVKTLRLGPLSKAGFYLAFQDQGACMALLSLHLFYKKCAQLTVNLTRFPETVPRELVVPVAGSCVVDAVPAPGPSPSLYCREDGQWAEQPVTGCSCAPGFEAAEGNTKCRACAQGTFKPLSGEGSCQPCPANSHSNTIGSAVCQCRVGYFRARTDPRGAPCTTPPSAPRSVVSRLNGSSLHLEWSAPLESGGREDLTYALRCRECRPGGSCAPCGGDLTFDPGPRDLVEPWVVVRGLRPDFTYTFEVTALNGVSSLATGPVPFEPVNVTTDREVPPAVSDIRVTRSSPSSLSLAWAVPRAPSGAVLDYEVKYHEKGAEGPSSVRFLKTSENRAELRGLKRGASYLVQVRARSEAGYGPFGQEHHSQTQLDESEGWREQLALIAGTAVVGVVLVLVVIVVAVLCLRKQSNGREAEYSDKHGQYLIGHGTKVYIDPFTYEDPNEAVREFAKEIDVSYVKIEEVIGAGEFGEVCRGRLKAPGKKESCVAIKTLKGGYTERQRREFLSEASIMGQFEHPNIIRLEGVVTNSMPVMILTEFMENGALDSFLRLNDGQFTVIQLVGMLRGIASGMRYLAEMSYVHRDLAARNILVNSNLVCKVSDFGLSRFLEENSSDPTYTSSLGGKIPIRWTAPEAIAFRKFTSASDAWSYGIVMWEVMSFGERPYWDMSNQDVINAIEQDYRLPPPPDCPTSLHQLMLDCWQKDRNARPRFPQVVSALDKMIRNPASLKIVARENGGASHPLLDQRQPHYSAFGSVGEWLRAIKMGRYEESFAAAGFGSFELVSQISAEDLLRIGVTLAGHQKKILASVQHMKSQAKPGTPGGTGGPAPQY
Sequence of Recombinant human Yes (P07947 whole entry): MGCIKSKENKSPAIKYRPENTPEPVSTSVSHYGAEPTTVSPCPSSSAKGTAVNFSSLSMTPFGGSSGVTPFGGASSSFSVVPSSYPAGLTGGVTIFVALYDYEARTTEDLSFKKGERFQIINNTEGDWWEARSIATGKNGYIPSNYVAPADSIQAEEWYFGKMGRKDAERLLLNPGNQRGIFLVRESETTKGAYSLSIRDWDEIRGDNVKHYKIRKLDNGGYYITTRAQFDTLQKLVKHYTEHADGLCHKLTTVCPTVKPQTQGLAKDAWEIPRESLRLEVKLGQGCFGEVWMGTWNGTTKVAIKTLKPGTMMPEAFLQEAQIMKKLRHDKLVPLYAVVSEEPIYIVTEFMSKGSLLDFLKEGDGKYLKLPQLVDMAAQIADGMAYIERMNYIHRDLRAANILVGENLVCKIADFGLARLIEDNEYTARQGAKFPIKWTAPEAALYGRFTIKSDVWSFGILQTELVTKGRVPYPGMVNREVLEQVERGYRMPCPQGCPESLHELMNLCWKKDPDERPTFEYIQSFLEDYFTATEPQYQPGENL

Compound | IC50 (Recombinant human c-Src) [nM] | IC50 (Pdgfrβ) [nM] | IC50 (Recombinant human Yes) [nM] | IC50 (EphB4) [nM]
Cc1cc(-c2cc(O)ccc2Cl)cc2nnc(Nc3ccc(C(=O)NCCN4CCCC4)o3)nc12 [5-[7-(2-chloro-5-hydroxy-phenyl)-5-methyl-benzo[1,2,4]triazin-3-ylamino]-furan-2-carboxylic acid (2-pyrrolidin-1-yl-ethyl)-amide] | – | 14.4 | – | –
CC(=O)Nc1cc(-c2c(C)cccc2C)cc2nnc(Nc3ccc(S(=O)(=O)NCCN4CCCC4)cc3)nc12 [N-{7-(2,6-dimethyl-phenyl)-3-[4-(2-pyrrolidin-1-yl-ethylsulfamoyl)-phenylamino]-benzo[1,2,4]triazin-5-yl}-acetamide] | – | 1850 | – | –
Cc1cccc(C)c1-c1cc(C)c2nc(Nc3cccc(S(=O)(=O)N4CCN(C)CC4)c3)nnc2c1 [[7-(2,6-dimethyl-phenyl)-5-methyl-benzo[1,2,4]triazin-3-yl]-[3-(4-methyl-piperazine-1-sulfonyl)-phenyl]-amine] | 322 | 81.3 | – | –
Cc1cccc(C)c1-c1cc(C)c2nc(Nc3ccccc3)nnc2c1 [[7-(2,6-dimethyl-phenyl)-5-methyl-benzo[1,2,4]triazin-3-yl]-phenyl-amine] | – | 628 | – | –
Cc1cccc(C)c1-c1cc(C)c2nc(Nc3cccc(OCCN4CCN(C)CC4)c3)nnc2c1 [[7-(2,6-dimethyl-phenyl)-5-methyl-benzo[1,2,4]triazin-3-yl]-{3-[2-(4-methyl-piperazin-1-yl)-ethoxy]-phenyl}-amine] | 39.5 | 69.1 | – | –
Cc1cccc(C)c1-c1cc(C)c2nc(Nc3cccc(OCCCN4CCN(C)CC4)c3)nnc2c1 [[7-(2,6-dimethyl-phenyl)-5-methyl-benzo[1,2,4]triazin-3-yl]-{3-[3-(4-methyl-piperazin-1-yl)-propoxy]-phenyl}-amine] | – | 76.3 | – | –
Cc1cc(-c2cc(O)ccc2Cl)cc2nnc(Nc3ccc(OCCN4CCCC4)cc3)nc12 [[7-(2-chloro-5-hydroxy-phenyl)-5-methyl-benzo[1,2,4]triazin-3-yl]-[4-(2-pyrrolidine-1-yl-ethoxy)-phenyl]-amine] | 1.6 | 1.1 | 0.5 | 15.9
Cc1cc(-c2cc(O)ccc2Cl)cc2nnc(Nc3ccc(C(=O)N4CCNCC4)cc3)nc12 [{4-[7-(2-chloro-5-hydroxy-phenyl)-5-methyl-benzo[1,2,4]triazin-3-ylamino]-phenyl}-piperazin-1-yl-methanone] | – | 1.2 | – | –
Cc1cc2nc(Nc3ccc(C(=O)N4CCN(C)CC4)cc3)nnc2cc1-c1cc(O)ccc1Cl [{4-[7-(2-chloro-5-hydroxy-phenyl)-6-methyl-benzo[1,2,4]triazin-3-ylamino]-phenyl}-(4-methyl-piperazin-1-yl)-methanone] | – | 3.7 | – | –

More lines, main results first:

IC50 (Recombinant human c-Src) [nM] | IC50 (Pdgfrβ) [nM] | Compound | IC50 (Recombinant human Yes) [nM] | IC50 (EphB4) [nM]
10.2 | 24.3 | Cc1ccccc1-c1cc2nnc(Nc3ccc(S(=O)(=O)NCCN4CCCC4)cc3)nc2cc1C [4-(6-methyl-7-o-tolyl-benzo[1,2,4]triazin-3-ylamino)-N-(2-pyrrolidin-1-yl-ethyl)-benzenesulfonamide] | – | –
10.5 | 48.1 | Cc1cc2nc(Nc3ccc(S(=O)(=O)NCCN4CCCC4)cc3)nnc2cc1-c1c(C)cccc1C [4-[7-(2,6-dimethyl-phenyl)-6-methyl-benzo[1,2,4]triazin-3-ylamino]-N-(2-pyrrolidin-1-yl-ethyl)-benzenesulfonamide] | – | –
20.4 | 73.7 | Cc1cc(F)ccc1-c1cc2nnc(Nc3ccc(S(=O)(=O)NCCN4CCCC4)cc3)nc2cc1C [4-[7-(4-fluoro-2-methyl-phenyl)-6-methyl-benzo[1,2,4]triazin-3-ylamino]-N-(2-pyrrolidin-1-yl-ethyl)-benzenesulfonamide] | – | –
6.8 | 11.5 | CC(=O)Nc1cc(-c2c(C)cccc2C)cc2nnc(Nc3ccc(OCCN4CCCC4)cc3)nc12 [N-{7-(2,6-dimethyl-phenyl)-3-[4-(2-pyrrolidin-1-yl-ethoxy)-phenylamino]-benzo[1,2,4]triazin-5-yl}-acetamide] | – | –
20.4 | 15.7 | Cc1cccc(C)c1-c1cc(NS(C)(=O)=O)c2nc(Nc3ccc(OCCN4CCCC4)cc3)nnc2c1 [N-{7-(2,6-dimethyl-phenyl)-3-[4-(2-pyrrolidin-1-yl-ethoxy)-phenylamino]-benzo[1,2,4]triazin-5-yl}-methanesulfonamide] | – | –
– | 15 | Cc1cc(-c2c(Cl)cccc2Cl)cc2nnc(Nc3ccc(OCCN4CCCC4)cc3)nc12 [[7-(2,6-dichloro-phenyl)-5-methyl-benzo[1,2,4]triazin-3-yl]-[4-(2-pyrrolidin-1-yl-ethoxy)-phenyl]-amine] | – | –
– | 50.3 | Cc1cccc(C)c1-c1cc(C)c2nc(Nc3ccc(OCCCN4CCN(C)CC4)cc3)nnc2c1 [[7-(2,6-dimethyl-phenyl)-5-methyl-benzo[1,2,4]triazin-3-yl]-{4-[3-(4-methyl-piperazin-1-yl)-propoxy]-phenyl}-amine] | – | –
– | 26.1 | Cc1ccc(F)cc1-c1cc2nnc(Nc3ccc(OCCN4CCCC4)cc3)nc2cc1C [[7-(5-fluoro-2-methyl-phenyl)-6-methyl-benzo[1,2,4]triazin-3-yl]-[4-(2-pyrrolidin-1-yl-ethoxy)-phenyl]-amine] | – | –
– | 3.5 | COc1ccc(Cl)c(-c2cc3nnc(Nc4ccc(C(=O)N5CCN(C)CC5)cc4)nc3cc2C)c1 [{4-[7-(2-chloro-5-methoxy-phenyl)-6-methyl-benzo[1,2,4]triazin-3-ylamino]-phenyl}-(4-methyl-piperazin-1-yl)-methanone] | – | –
– | 6 | Cc1ccc(Cl)cc1-c1cc2nnc(Nc3ccc(C(=O)N4CCN(C)CC4)cc3)nc2cc1C [{4-[7-(5-chloro-2-methyl-phenyl)-6-methyl-benzo[1,2,4]triazin-3-ylamino]-phenyl}-(4-methyl-piperazin-1-yl)-methanone] | – | –
